PMC9964336, “Neosuberitenone, a New Sesterterpenoid Carbon Skeleton; New Suberitenones; and Bioactivity against Respiratory Syncytial Virus, from the Antarctic Sponge Suberites sp” (Marine Drugs, 2023)
Read-outs that look alike come from different tables or passages of the source.

How the values were obtained:
[1] = tested on: panel of tumor cell lines; conditions: cited from earlier work
RSV = RSV antiviral assay (Renilla luciferase reporter virus rA2-Rluc in A549 cells); type: cell-based, respiratory syncytial virus; conditions: for EC50 / IC50: human respiratory syncytial virus; for EC50: A549, read-out: EC50 against RSV (Table S12); for Selectivity Index: Selectivity index = CC50/IC50
Procedure: A549 (CCL-185, ATCC) cells were seeded at 1.6 × 10^4 cells in 100 μL of 5% FBS/1X penicillin–streptomycin/F12 medium per well in 96-well µClear® black plates with a clear bottom (Greiner 655090). The cells were infected with 400 PFU/well of a recombinant RSV encoding Renilla luciferase as an additional transcription unit (rA2-Rluc) in a total volume of 50 µL/well and allowed to adsorb for 1 h. Purified compounds were serially diluted two-fold in triplicate and 50 µL/well of the diluted extracts were added to the infected cells. After further incubation at 37 °C and 5% CO2 for 24 h, the supernatants were removed and cells were lysed using Renilla lysis buffer (Promega). Luciferase activity was measured with the Renilla Luciferase reagent (Promega) and BioTek Synergy Mx microplate luminometer using Gen5 version 2.00.18 software. The RSV antiviral effect for the test samples was determined by normalizing to the DMSO-treated control samples and multiplying by 100 to obtain the percent of control. Statistical analysis was performed using GraphPad Prism software version 9.4.1.

[2] = Cytotoxicity assay (MTT) in uninfected A549 cells; type: cell-based; conditions: human, means ± SEM of triplicate samples
Procedure: To test for cell viability, duplicate 96-well plates of uninfected A549 cells were set up in parallel with the RSV antiviral assay. Extracts were diluted and used to treat cells as described above for the RSV antiviral assay. The negative control for cytotoxicity was 2% DMSO while the positive was 2 μM (final concentration) of PDKI inhibitor. After the 24 h incubation period, the cells were processed for an MTT Proliferation Assay (Provost and […] Research) according to the manufacturer's protocol. Absorbance at 570 nm was measured by a microplate luminometer and standardized to control as above. Two percent DMSO and 2 μM PDK1 inhibitor (CalBioChem) were used as negative and positive controls for cell death, respectively. Statistical analysis was performed using GraphPad Prism software version 9.4.1.

ESKAPE pathogens = experiment: Antibacterial screen; type: cell-based
Candida strains = experiment: Antifungal screen; type: cell-based; conditions: several Candida strains
[3] = Stability in solution (NMR / reversed-phase HPLC observation); type: physicochemical; conditions: CDCl3, NMR solvent
Procedure: While NMR data were collected on purified suberitenone I (6), the signals decreased in intensity while those of a new species grew in intensity. […] Thus, suberitenone J (7) is the oxaspiro-ring-opened isomer, existing in equilibrium with 6. When the two were separated by reversed-phase HPLC, both reverted to an equilibrium mixture of ~3:1 6:7 over 24 h.

HIV gene expression = tested on: HIV gene expression; design: method as in PMID 27768313; conditions: cited from earlier work
MRSA = tested on: MRSA; design: method as in doi:10.1021/jo00128a034, PMID 15104501, doi:10.1016/j.tetlet.2004.04.091, doi:10.1016/j.tetlet.2018.07.055; conditions: cited from earlier work
[4] = A549, 24 h, read-out: IC50 (RSV antiviral)
[5] = A549, read-out: IC50 (RSV antiviral, text)

For 19-episuberitenone B, the “cytotoxicity against a panel of tumor cell lines” value [1] is listed as “weak cytotoxicity”.

For CC(=O)OC1CC2(C)C=C3C4CC(=O)C(C)(CC4O)C3CC2C2(C)CCCC(C)(C)C12 (stereo not drawn) [Compound 1, Neosuberitenone A], the viral inhibitory effects (RSV; at 25 µg/mL) was “did not show any viral inhibitory effects” and the EC50 (RSV) was greater than 50 µM.

For CC(=O)OC1CC2(C)C(CCC3(C4CC(=O)C(C)=CC4O)OC23)C2(C)CCCC(C)(C)C12 (stereo not drawn) [Compound 2, Suberitenone E], the “Selectivity Index” value (RSV) was 4.3, the IC50 (RSV; [4]) was 20.5 ± 0.7 µM and the EC50 (RSV) was 20.5 µM. It also gave a CC50 at 24 h [2] of 87.3 ± 38.1 µM.

In the case of CC(=O)OC1CC2(C)C(O)C(C3CC(=O)C(C)=CC3O)=CCC2C2(C)CCCC(C)(C)C12 (stereo not drawn) [Compound 3, Suberitenone F], the antibacterial activity (ESKAPE pathogens) is reported as “inactive”, the “activity against RSV (in words)” value (RSV) is reported as “active” and the “Selectivity Index” value (RSV) is reported as 3.7. The IC50 (RSV; [4]) was 9.8 ± 1.4 µM, the EC50 (RSV) was 9.8 µM and the CC50 at 24 h [2] was 36 ± 5.3 µM. The antifungal activity (Candida strains) was “inactive”.

In the case of CC(=O)O[C@@H]1C[C@@]2(C)C(=O)C([C@H]3CC(=O)C(C)=C[C@H]3O)=CCC2[C@@]2(C)CCCC(C)(C)C12 (stereo partly drawn) [Compound 4, Suberitenone G], the “stability in CDCl3” value [3] is reported as “decomposition was observed”, the “Selectivity Index” value (RSV) is reported as 3.7 and the IC50 (RSV; [4]) is reported as 11 ± 1.3 µM. For the same compound, the EC50 (RSV) was 11 µM and the CC50 at 24 h [2] was 40.7 ± 8.3 µM.

With COC1C(C)C(=O)CC(C2(O)CCC3C(C)(CC(OC(C)=O)C4C(C)(C)CCCC43C)C2)C1O (stereo not drawn) [Compound 5, Suberitenone H] the “Selectivity Index” value (RSV) was 4.7, the IC50 (RSV; [4]) was 10.9 ± 1.8 µM and the EC50 (RSV) was 10.9 µM. The CC50 at 24 h [2] was 51.1 ± 17.5 µM.

In the case of CC(=O)OC1CC2(C)C=C(C3CC(=O)C(C)=CC3O)CCC2C2(C)CCCC(C)(C)C12 (stereo not drawn) [Compound 10, suberitenone A], the antibacterial activity (ESKAPE pathogens) is reported as “inactive”, the “activity against RSV (in words)” value (RSV) is reported as “active” and the “Selectivity Index” value (RSV) is reported as 4.3. It also gave an IC50 (RSV; [4]) of 7.8 ± 0.2 µM, an EC50 (RSV) of 7.9 µM and an IC50 (RSV; [5]) of 7.9 µM. For the same compound, the CC50 at 24 h [2] was 33.3 ± 1.3 µM and the antifungal activity (Candida strains) was “inactive”.

In the case of CC(=O)OC1CC2(C)CC(O)(C3CC(=O)C(C)=CC3O)CCC2C2(C)CCCC(C)(C)C12 (stereo not drawn) [Compound 11, suberitenone B], the antibacterial activity (ESKAPE pathogens) is reported as “inactive”, the “activity against RSV (in words)” value (RSV) is reported as “active” and the “Selectivity Index” value (RSV) is reported as 21.1. The IC50 (RSV; [4]) was 3.2 ± 0.4 µM, the EC50 (RSV) was 3.5 µM and the IC50 (RSV; [5]) was 3.5 µM. For the same compound, the CC50 at 24 h [2] was 67.6 ± 16.3 µM and the antifungal activity (Candida strains) was “inactive”.

For anvilone A, the HIV gene expression (HIV gene expression) is listed as “turned on HIV gene expression”.

For isosuberitenone B, the “cytotoxicity against a panel of tumor cell lines” value [1] is given as “weak cytotoxicity”.

In the case of oxaspirosuberitenone, the “antibacterial activity against MRSA” value (MRSA) is listed as “mild antibacterial activity”.
